# Laboratory results as given in patent US20250134109A1, “Antimicrobial, Antiviral and Antifungal Articles and Methods of Producing Such Articles” (Cupron, Inc., priority 2021, published 2025).
# Test: Copper ion release from 1.0μ particles of various copper compounds over exposure cycles
# Type: physicochemical
# Text: In many embodiments, it is possible to provide ion release rates that are tailored to the specific application. For example, embodiments include articles that comprise first particles having a first ion release rate and second particles having a second ion release rate.
# The ion release rates listed may be considered to be an average ion release rate of a plurality of particles or powder having an average particle size of 1 micron also. […]
Compound,number of exposures in which copper ions are released into a fluid (as shown in Table 1),Copper ion release from 1.0μ particles (exposure cycle 0) [ppm],Copper ion release from 1.0μ particles (exposure cycle 5) [ppm],Copper ion release from 1.0μ particles (exposure cycle 10) [ppm],Copper ion release from 1.0μ particles (exposure cycle 15) [ppm],Copper ion release from 1.0μ particles (exposure cycle 20) [ppm],Copper ion release from 1.0μ particles (exposure cycle 25) [ppm],Copper ion release from 1.0μ particles (exposure cycle 30) [ppm],Copper ion release from 1.0μ particles (exposure cycle 35) [ppm],Copper ion release from 1.0μ particles (exposure cycle 40) [ppm],Copper ion release from 1.0μ particles (exposure cycle 45) [ppm],Copper ion release from 1.0μ particles (exposure cycle 50) [ppm]
"O=S(=O)([O-])[O-].[Cu+2] [CuSO4, copper sulfate]",less than five exposures,100.0,0.0,0.0,0.0,0.0,0.0,0.0,0.0,0.0,0.0,0.0
"[Cu+].[I-] [Cul, cuprous iodide]",,6.0,3.0,1.5,0.7,0.4,0.2,0.1,0.0,0.0,0.0,0.0
copper sulfide [Cu2S],,0.5,0.5,0.5,0.5,0.5,0.5,0.5,0.5,0.5,0.5,0.5
cuprous thiocyanate [CuSCN],,4.0,2.7,1.8,1.3,0.9,0.6,0.4,0.3,0.2,0.1,0.0
